Values quoted from earlier work as cited in patent publication US20090088424A1, “METHODS AND COMPOSITIONS FOR CONTROLLING THE BIOAVAILABILITY OF POORLY SOLUBLE DRUGS” (priority 2007, published 2009).
Values after ≈ are worked out from the molar mass of the structure shown.

Details: pH 8.7, 25° C.

O=C1Nc2ccc(Cl)cc2[C@@](C#CC2CC2)(C(F)(F)F)O1 [Efavirenz, (S)-6-chloro-4-(cyclopropylethynyl)-1,4-dihydro-4-(trifluoromethyl)-2H-3,1-benzoxazin-2-one]
aqueous solubility: 9.2 µg/mL (≈ 29.1 µM)
